According to US20120270929A1, “MODULATION OF TTC39 EXPRESSION TO INCREASE HDL” (ISIS Pharmaceuticals, Inc., priority 2009, published 2012):
Oligonucleotides are written 5' to 3', each unit as a sugar letter and its base; * is a phosphorothioate linkage, no mark a phosphodiester; rarer units and linkages stand in square brackets, end groups in braces. Plain capitals give the bases only. e = 2'-O-(2-methoxyethyl) (MOE); [5mC] = 5-methylcytosine; d = 2'-deoxy (DNA)

Experiments:
ABCA1 mRNA = ABCA1 mRNA levels in C57BL/6 mice after TTC39B inhibition; type: in vivo, mouse; settings: 50 mg/kg/week, 6 weeks
Method: (§1) Four groups of five mice each were injected twice a week with 25 mg/kg (totaling 50 mg/kg/week) of ISIS 447114, ISIS 447118, ISIS 447143, or ISIS 447144 for 6 weeks. A control group of five mice was injected with phosphate buffered saline (PBS) twice a week for 6 weeks. Plasma samples were obtained before the start of treatment, at week 3 and at week 6. At the end of the treatment period, mice were fasted for 4 hours before being euthanized. Plasma and tissue samples were obtained for further analysis.
(§2) The effect of inhibition of TTC39B in mice on these proteins of reverse cholesterol transport was studied. RNA levels of ABCA1 were measured using murine primer probe set RTS1204 (forward sequence […], designated herein as SEQ ID NO: 97; reverse sequence […], designated herein as SEQ ID NO: 98; and probe sequence […], designated herein as SEQ ID NO: 99). RNA levels of apoA1 were measured using murine primer probe set RTS14737 (forward sequence […], designated herein as SEQ ID NO: 100; reverse sequence […], designated herein as SEQ ID NO: 101; and probe sequence […], designated herein as SEQ ID NO: 102). RNA levels of SRB1 were measured using murine primer probe set mSRB-1 (forward sequence […], designated herein as SEQ ID NO: 103; reverse sequence ATGCGACTTGTCAGGCTGG, designated herein as SEQ ID NO: 104; and probe sequence […], designated herein as SEQ ID NO: 105).

[1] = Liver function: plasma transaminases (ALT, AST) in C57BL/6 mice; type: in vivo, mouse
Method: as §1
To evaluate the impact of ISIS oligonucleotides on the hepatic function of the mice described above, plasma concentrations of transaminases were measured using an automated clinical chemistry analyzer (Olympus Clinical Analyzer). Measurements of alanine transaminase (ALT) and aspartate transaminase (AST) are expressed in IU/L. The results are presented in Tables 19 and 20 and indicate that the oligonucleotides were well tolerated.

SRB1 mRNA = SRB1 mRNA levels in C57BL/6 mice after TTC39B inhibition; type: in vivo, mouse; settings: 50 mg/kg/week, 6 weeks
Method: as §1, §2

murine TTC39B mRNA [2] = assay: In vivo antisense inhibition of murine TTC39B mRNA in liver of C57BL/6 mice; design: species or system mouse; settings: 50 mg/kg/week, 6 weeks, relative to PBS control
Method: as §1
RNA was extracted from liver tissue for real-time PCR analysis of TTC39B using murine primer probe set mTtc39b_LTS00287. […] Results are presented as an average of the percent inhibition of TTC39B, relative to control.

[3] = Body and organ weights in C57BL/6 mice; type: in vivo, mouse; settings: for Kidney weight after treatment / Liver weight after treatment / Spleen weight after treatment: 50 mg/kg/week, 6 weeks
Method: as §1
Body weights of all the mice were measured weekly till the end of the treatment period. Organ weights were taken at the end of the treatment period when the mice were euthanized.

LDLR mRNA = LDLR mRNA levels in C57BL/6 mice; type: in vivo, mouse; settings: 50 mg/kg/week, 6 weeks, compared to PBS control
Method: as §1
(§3) The effect of inhibition of TTC39B in mice on cholesterol homeostasis was studied. PCSK9 mRNA levels were measured using the murine primer probe set mPCSK9 (forward sequence ACCGACTTCAACAGCGTGC, designated herein as SEQ ID NO: 106; reverse sequence GGCTGTCACACTTGCTCGC, designated herein as SEQ ID NO: 107, probe sequence AGGATGGGACACGCTTCCACAGACAX, wherein X is a fluorophore, designated herein as SEQ ID NO: 108). LDLR mRNA levels were measured using the murine primer probe set mLDLR (forward sequence GACCGCAGCGAGTACACCA, designated herein as SEQ ID NO: 109; reverse sequence TCACCTCCGTGTCGAGAGC, designated herein as SEQ ID NO: 110, probe sequence […], designated herein as SEQ ID NO: 111). The results are presented as percentage inhibition compared to the PBS control.

[4] = Plasma cholesterol and triglycerides in C57BL/6 mice (Olympus AU400e); type: in vivo, mouse; settings: for total cholesterol % increase over baseline: 6 weeks, baseline average of 72 mg/dL
Method: as §1
To investigate the effect of inhibition of TTC39B on triglycerides and cholesterol levels in the plasma, samples were collected on weeks 0, 3, and 6, and total plasma cholesterol, LDL cholesterol, HDL cholesterol, and triglycerides were analyzed on an Olympus AU400e Analyzer.

PCSK9 mRNA = PCSK9 mRNA levels in C57BL/6 mice; type: in vivo, mouse; settings: 50 mg/kg/week, 6 weeks, compared to PBS control
Method: as §1, §3

[5] = Plasma glucose in C57BL/6 mice (glucose oxidase assay); type: in vivo, mouse
Method: as §1
Plasma glucose values were determined using a Beckman Glucose Analyzer II (Beckman Coulter) by a glucose oxidase assay. As presented in Table 14, there was no significant change in glucose levels after treatment with ISIS oligonucleotides.

murine TTC39B mRNA [6] = assay: Dose-dependent antisense inhibition of murine TTC39B in mouse primary hepatocytes (Example 3); type: cell-based; settings: cytofectin, ~16 h
Method: Cells were plated at a density of 10,000 cells per well and transfected using cytofectin reagent with 6.25 nM, 12.5 nM, 25 nM, 50 nM, 100 nM, and 200 nM concentrations of antisense oligonucleotide, as specified in Table 4. After a treatment period of approximately 16 hours, RNA was isolated from the cells and TTC39B mRNA levels were measured by quantitative real-time PCR. Murine primer probe set mTtc39b_LTS00287 was used to measure mRNA levels. TTC39B mRNA levels were adjusted according to total RNA content, as measured by RIBOGREEN®. Results are presented as percent inhibition of TTC39B, relative to untreated control cells.

[7] = Week 0 (before treatment), 50 mg/kg/week

With “CGGATGATTCTTGCTGGTAA (antisense e[5mC]*eG*eG*eA*eT*dG*dA*dT*dT*d[5mC]*dT*dT*dG*d[5mC]*dT*eG*eG*eT*eA*eA) [ISIS 447114]” the “abcA1 mRNA levels (effect of TTC39B inhibition)” value (ABCA1 mRNA) was −18, the ALT levels [1, 7] was 46 IU/L and the AST levels [1, 7] was 83 IU/L. The ALT levels ([1]; Week 3, 50 mg/kg/week) was 21 IU/L, the AST levels ([1]; Week 3, 50 mg/kg/week) was 29 IU/L and the ALT levels ([1]; Week 6, 50 mg/kg/week) was 40 IU/L. For the same sequence, the AST levels ([1]; Week 6, 50 mg/kg/week) was 93 IU/L, the “srb1 mRNA levels (effect of TTC39B inhibition)” value (SRB1 mRNA) was −12 and the “% inhibition of TTC39B mRNA in liver” value (murine TTC39B mRNA [2]) was 49%. The “Kidney weight after treatment” value [3] was 0.33 g, the “Liver weight after treatment” value [3] was 1.3 g and the “Spleen weight after treatment” value [3] was 0.09 g. It also gave a body weight ([3]; Week 3, 50 mg/kg/week) of 26 g, a body weight ([3]; Week 6, 50 mg/kg/week) of 27 g and a body weight ([3]; week 1, 50 mg/kg/week) of 25 g. It also gave a body weight ([3]; week 2, 50 mg/kg/week) of 25 g, a body weight ([3]; week 4, 50 mg/kg/week) of 26 g and a body weight ([3]; week 5, 50 mg/kg/week) of 27 g. For the same sequence, the “Percent inhibition LDLR mRNA levels” value (LDLR mRNA) was 2%, the “total cholesterol % increase over baseline” value ([4]; 50 mg/kg/week) was “+61%” and the HDL cholesterol levels [4, 7] was 42 mg/dL. For the same sequence, the LDL cholesterol levels [4, 7] was 11 mg/dL, the total cholesterol levels [4, 7] was 66 mg/dL and the triglyceride levels [4, 7] was 107 mg/dL. For the same sequence, the HDL cholesterol levels ([4]; Week 3, 50 mg/kg/week) was 47 mg/dL, the “HDL cholesterol levels (% change over baseline)” value ([4]; Week 3, 50 mg/kg/week) was “+14%” and the LDL cholesterol levels ([4]; Week 3, 50 mg/kg/week) was 12 mg/dL. The total cholesterol levels ([4]; Week 3, 50 mg/kg/week) was 70 mg/dL, the triglyceride levels ([4]; Week 3, 50 mg/kg/week) was 66 mg/dL and the HDL cholesterol levels ([4]; Week 6, 50 mg/kg/week) was 96 mg/dL. For the same sequence, the “HDL cholesterol levels (% change over baseline)” value ([4]; Week 6, 50 mg/kg/week) was “+130%”, the LDL cholesterol levels ([4]; Week 6, 50 mg/kg/week) was 19 mg/dL and the total cholesterol levels ([4]; Week 6, 50 mg/kg/week) was 114 mg/dL. For the same sequence, the triglyceride levels ([4]; Week 6, 50 mg/kg/week) was 113 mg/dL, the “Percent inhibition PCSK9 mRNA levels” value (PCSK9 mRNA) was 24% and the glucose levels [5, 7] was 293 mg/dL. For the same sequence, the glucose levels ([5]; Week 3, 50 mg/kg/week) was 229 mg/dL, the glucose levels ([5]; Week 6, 50 mg/kg/week) was 232 mg/dL and the “percent inhibition of TTC39B mRNA” value (murine TTC39B mRNA [6]; 6.25 nM) was 6%. The “percent inhibition of TTC39B mRNA” value (murine TTC39B mRNA [6]; 12.5 nM) was 5%, the “percent inhibition of TTC39B mRNA” value (murine TTC39B mRNA [6]; 25.0 nM) was 34% and the “percent inhibition of TTC39B mRNA” value (murine TTC39B mRNA [6]; 50.0 nM) was 71%. The “percent inhibition of TTC39B mRNA” value (murine TTC39B mRNA [6]; 100.0 nM) was 90% and the “percent inhibition of TTC39B mRNA” value (murine TTC39B mRNA [6]; 200.0 nM) was 93%.

With “GCCACCAGTGCCTGCTGAGC (antisense eG*e[5mC]*e[5mC]*eA*e[5mC]*d[5mC]*dA*dG*dT*dG*d[5mC]*d[5mC]*dT*dG*d[5mC]*eT*eG*eA*eG*e[5mC]) [ISIS 447143]” the “abcA1 mRNA levels (effect of TTC39B inhibition)” value (ABCA1 mRNA) was −17, the ALT levels [1, 7] was 32 IU/L and the AST levels [1, 7] was 50 IU/L. For the same sequence, the ALT levels ([1]; Week 3, 50 mg/kg/week) was 31 IU/L, the AST levels ([1]; Week 3, 50 mg/kg/week) was 31 IU/L and the ALT levels ([1]; Week 6, 50 mg/kg/week) was 45 IU/L. The AST levels ([1]; Week 6, 50 mg/kg/week) was 73 IU/L, the “srb1 mRNA levels (effect of TTC39B inhibition)” value (SRB1 mRNA) was 0 and the “% inhibition of TTC39B mRNA in liver” value (murine TTC39B mRNA [2]) was 85%. For the same sequence, the “Kidney weight after treatment” value [3] was 0.34 g, the “Liver weight after treatment” value [3] was 1.5 g and the “Spleen weight after treatment” value [3] was 0.08 g. The body weight ([3]; Week 3, 50 mg/kg/week) was 27 g, the body weight ([3]; Week 6, 50 mg/kg/week) was 28 g and the body weight ([3]; week 1, 50 mg/kg/week) was 26 g. For the same sequence, the body weight ([3]; week 2, 50 mg/kg/week) was 26 g, the body weight ([3]; week 4, 50 mg/kg/week) was 27 g and the body weight ([3]; week 5, 50 mg/kg/week) was 28 g. For the same sequence, the “Percent inhibition LDLR mRNA levels” value (LDLR mRNA) was 34%, the “total cholesterol % increase over baseline” value ([4]; 50 mg/kg/week) was “+46%” and the HDL cholesterol levels [4, 7] was 44 mg/dL. The LDL cholesterol levels [4, 7] was 13 mg/dL, the total cholesterol levels [4, 7] was 70 mg/dL and the triglyceride levels [4, 7] was 95 mg/dL. For the same sequence, the HDL cholesterol levels ([4]; Week 3, 50 mg/kg/week) was 56 mg/dL, the “HDL cholesterol levels (% change over baseline)” value ([4]; Week 3, 50 mg/kg/week) was “+28%” and the LDL cholesterol levels ([4]; Week 3, 50 mg/kg/week) was 14 mg/dL. The total cholesterol levels ([4]; Week 3, 50 mg/kg/week) was 81 mg/dL, the triglyceride levels ([4]; Week 3, 50 mg/kg/week) was 92 mg/dL and the HDL cholesterol levels ([4]; Week 6, 50 mg/kg/week) was 91 mg/dL. For the same sequence, the “HDL cholesterol levels (% change over baseline)” value ([4]; Week 6, 50 mg/kg/week) was “+104%”, the LDL cholesterol levels ([4]; Week 6, 50 mg/kg/week) was 17 mg/dL and the total cholesterol levels ([4]; Week 6, 50 mg/kg/week) was 104 mg/dL. For the same sequence, the triglyceride levels ([4]; Week 6, 50 mg/kg/week) was 95 mg/dL, the “Percent inhibition PCSK9 mRNA levels” value (PCSK9 mRNA) was 65% and the glucose levels [5, 7] was 238 mg/dL. For the same sequence, the glucose levels ([5]; Week 3, 50 mg/kg/week) was 231 mg/dL, the glucose levels ([5]; Week 6, 50 mg/kg/week) was 241 mg/dL and the “percent inhibition of TTC39B mRNA” value (murine TTC39B mRNA [6]; 6.25 nM) was 7%. For the same sequence, the “percent inhibition of TTC39B mRNA” value (murine TTC39B mRNA [6]; 12.5 nM) was 25%, the “percent inhibition of TTC39B mRNA” value (murine TTC39B mRNA [6]; 25.0 nM) was 44% and the “percent inhibition of TTC39B mRNA” value (murine TTC39B mRNA [6]; 50.0 nM) was 72%. For the same sequence, the “percent inhibition of TTC39B mRNA” value (murine TTC39B mRNA [6]; 100.0 nM) was 88% and the “percent inhibition of TTC39B mRNA” value (murine TTC39B mRNA [6]; 200.0 nM) was 94%.
